Test systems include HT29 colon; ACHN renal; 786-0 renal; COLO 205 colon; NCI-H460 lung; OVCAR-5 ovarian; A549 NSCLC; T-47D breast; MDA-MB-231 breast; NCI-H226 lung.
What all share (test): NCI anticancer screen, dose series, 48 h

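These data come from cells grown in 96-well plates and exposed to compound for 48 hours at five concentrations. GI50: concentration for 50% inhibition of growth. TGI: total growth inhibition.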

As to `NC(N)=N/N=C/c1cccc(Cl)c1Cl`, the GI50 is 2.31 µM in the test with HT29 colon; 12.4 µM in the test with ACHN renal; 11.1 µM in the test with 786-0 renal; 1.69 µM in the test on COLO 205 colon; 3.76 µM with NCI-H460 lung; 12.4 µM in the test with OVCAR-5 ovarian. The GI50 in the test with A549 NSCLC was 7.51 µM; with T-47D breast, 1.54 µM; in the test with MDA-MB-231 breast, 3.63 µM; with NCI-H226 lung, 13.6 µM. Moreover, the TGI in the test with HT29 colon came out at 5.98 µM; in the test with ACHN renal it was 25.9 µM; with 786-0 renal, 24.7 µM; in the test on COLO 205 colon, 3.13 µM; with NCI-H460 lung, 14.7 µM; in the test on OVCAR-5 ovarian it was 26.3 µM. The TGI with A549 NSCLC is 21.9 µM; in the test with T-47D breast, 3.64 µM; in the test on MDA-MB-231 breast, 14.7 µM; with NCI-H226 lung it was 29.2 µM.

As to `COc1ccc(NC(=O)c2sc3nc(C)c(C(O)c4ccc(OC)cc4)cc3c2N)cc1` (stereo not drawn), the GI50 in the test with HT29 colon was 1.45 µM; in the test with ACHN renal, 2.51 µM; in the test with 786-0 renal, 3.35 µM; in the test with COLO 205 colon, 1.57 µM; in the test on NCI-H460 lung, 0.17 µM; with OVCAR-5 ovarian, 1.87 µM. Also, the GI50 in the test with A549 NSCLC is 0.258 µM; in the test with T-47D breast, 10.5 µM; with MDA-MB-231 breast it was 2.06 µM; in the test on NCI-H226 lung, 3.54 µM. The TGI was 19.4 µM in the test with HT29 colon; more than 50 µM in the test on ACHN renal; more than 50 µM with 786-0 renal; 31.6 µM in the test with COLO 205 colon; 9.97 µM with NCI-H460 lung; more than 50 µM in the test with OVCAR-5 ovarian. Also, the TGI in the test on A549 NSCLC, in the test on T-47D breast, in the test with MDA-MB-231 breast and in the test on NCI-H226 lung was more than 50 µM in each case.

Turning to `COc1ccccc1CNC(=O)C1c2ccccc2C(=O)N(CC(C)C)C1c1cccs1` (stereo not drawn), the GI50 with HT29 colon is 17 µM; in the test on ACHN renal it was 24.8 µM; with 786-0 renal, 20.3 µM; in the test on COLO 205 colon it was 18.2 µM; in the test on NCI-H460 lung, 18.1 µM; in the test on OVCAR-5 ovarian, 34.6 µM. Also, the figures for the GI50 in the test on T-47D breast, in the test with MDA-MB-231 breast and in the test on NCI-H226 lung were 20.2 µM, 26.8 µM and 20.4 µM, respectively. For the same compound, the TGI in the test with HT29 colon is 90.5 µM; in the test on ACHN renal, 90.3 µM; with 786-0 renal, 51.2 µM; in the test on COLO 205 colon it was 39.1 µM; with NCI-H460 lung, 46.9 µM; in the test with OVCAR-5 ovarian, more than 100 µM. Further, the results for the TGI in the test with T-47D breast, with MDA-MB-231 breast and with NCI-H226 lung were 89.8 µM, more than 100 µM and 72.4 µM, respectively.

With `O=[N+]([O-])c1cc(Cl)cc2c1nc(NCCO)c1ccccc12`, the TGI was more than 43 µM in the test on HT29 colon; more than 100 µM in the test with ACHN renal; more than 100 µM with 786-0 renal; 0.236 µM in the test with COLO 205 colon; 15.7 µM in the test on NCI-H460 lung; more than 63 µM in the test on OVCAR-5 ovarian. Moreover, the TGI in the test on A549 NSCLC is more than 100 µM; with T-47D breast, more than 100 µM; in the test with MDA-MB-231 breast, more than 100 µM; with NCI-H226 lung, more than 80.2 µM.

`c1ccc2cc(OCC3CO3)c(OCC3CO3)cc2c1` (stereo not drawn): the TGI was determined as 20.1 µM in the test with HT29 colon; 6.05 µM in the test on ACHN renal; 12.9 µM in the test with 786-0 renal; 25.3 µM with COLO 205 colon; 15.8 µM with NCI-H460 lung; 23.4 µM in the test on OVCAR-5 ovarian. Moreover, the TGI in the test on A549 NSCLC came out at 30 µM; in the test with T-47D breast it was 45.4 µM; with MDA-MB-231 breast, 55.1 µM.

With `CN(C)CCOc1nc2c3cccnc3cc(-c3cccc(Cl)c3)c2c2ncccc12`, the GI50 in the test with HT29 colon was 1.01 µM; in the test with ACHN renal it was 0.698 µM; in the test with 786-0 renal, 1.45 µM; in the test on COLO 205 colon it was 1.23 µM; with NCI-H460 lung, 0.836 µM; with OVCAR-5 ovarian, 1.5 µM. Moreover, the GI50 was 1.39 µM with A549 NSCLC, 2.16 µM in the test on T-47D breast, 1.5 µM in the test on MDA-MB-231 breast and 6.09 µM in the test on NCI-H226 lung. For the same compound, the TGI with HT29 colon was determined as 2.27 µM; with ACHN renal, 2.45 µM; in the test on 786-0 renal it was 2.84 µM; in the test on COLO 205 colon, 2.74 µM; in the test on NCI-H460 lung, 2.24 µM; in the test on OVCAR-5 ovarian, 4.02 µM. The TGI turned out to be 2.98 µM in the test with A549 NSCLC, 6.39 µM in the test on T-47D breast, 3.53 µM with MDA-MB-231 breast and 24.6 µM in the test on NCI-H226 lung.

On to `COc1cccc(Cn2cc3c(c2)-c2oncc2CC3)c1`, for which the GI50 with HT29 colon is 0.306 µM; in the test on ACHN renal, 0.876 µM; in the test on 786-0 renal it was 1.98 µM; with COLO 205 colon, 0.313 µM; in the test with NCI-H460 lung, 0.338 µM; in the test with OVCAR-5 ovarian, 0.693 µM. In addition, the GI50 was 0.559 µM in the test on A549 NSCLC, 0.246 µM in the test on T-47D breast, 0.636 µM in the test on MDA-MB-231 breast and 2.72 µM with NCI-H226 lung. Further, the TGI is 11.7 µM in the test on HT29 colon; more than 100 µM in the test with ACHN renal; more than 100 µM with 786-0 renal; 1.05 µM with COLO 205 colon; 4.1 µM with NCI-H460 lung; more than 100 µM in the test with OVCAR-5 ovarian. Further, the TGI was more than 56.1 µM in the test with A549 NSCLC, 6.38 µM with T-47D breast, 96.8 µM with MDA-MB-231 breast and more than 100 µM in the test with NCI-H226 lung.

As for `CC(C)=CCC/C(C)=C/CC/C(=C/COP(=O)(OCc1ccc([N+](=O)[O-])o1)N(C)CCCCCl)CC=C(C)C` (stereo not drawn), the GI50 with HT29 colon was 4.56 µM; in the test with 786-0 renal, 5.7 µM; with COLO 205 colon, 8.01 µM; in the test with NCI-H460 lung, 3.75 µM; in the test with OVCAR-5 ovarian it was 10.6 µM; in the test on A549 NSCLC it was 8.66 µM. The values for the GI50 with T-47D breast and with MDA-MB-231 breast were 38 µM and 8.58 µM, respectively. Further, the TGI in the test on HT29 colon is 33.6 µM; with 786-0 renal, 19.2 µM; in the test with COLO 205 colon it was 66.4 µM; with NCI-H460 lung, 11.8 µM; in the test with OVCAR-5 ovarian it was 24.3 µM; in the test on A549 NSCLC, 24.2 µM. Also, the TGI with T-47D breast was more than 100 µM; with MDA-MB-231 breast it was 22.8 µM.

These data come from PubChem BioAssay (NCI).
